# Measurements taken from ChEMBL document CHEMBL1201862, “PubChem BioAssay data set” (2004).
#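 48-hour exposure; five concentrations; linearly interpolated endpoints. Abbreviation: GI50, concentration required for 50% inhibition of growth.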 The source made the active and inactive calls. No stated cut-off is given here; in the data, active = GI50 up to about 1.1 µM and inactive = higher.
# How the values were obtained:
# Experiment in all cases: NCI anticancer screen, dose series, 48 h
# ACHN = system: ACHN
# DMS-114 = system: DMS-114
# HL-60 = system: HL-60
# HOP-62 = system: HOP-62
# M14 = system: M14
# M19-MEL = system: M19-MEL
# NCI-H460 = system: NCI-H460
# OVCAR-3 = system: OVCAR-3
# SK-MEL-2 = system: SK-MEL-2
# SK-MEL-5 = system: SK-MEL-5
# SK-OV-3 = system: SK-OV-3
# SN12C = system: SN12C
# SNB-19 = system: SNB-19
# XF498 = system: XF498
# 786-0 = system: 786-0
# OVCAR-4 = system: OVCAR-4
SMILES,GI50 (ACHN),GI50 (DMS-114),GI50 (HL-60),GI50 (HOP-62),GI50 (M14),GI50 (M19-MEL),GI50 (NCI-H460),GI50 (OVCAR-3),GI50 (SK-MEL-2),GI50 (SK-MEL-5),GI50 (SK-OV-3),GI50 (SN12C),GI50 (SNB-19),GI50 (XF498),GI50 (786-0),GI50 (OVCAR-4)
CCOC(=O)C(=CNC(Cc1c[nH]c2ccccc12)C(=O)OC)C(=O)OCC (configuration not stated),> 100 µM (inactive),> 100 µM (inactive),> 100 µM (inactive),< 0.01 µM (active),> 100 µM (inactive),> 100 µM (inactive),44.7 µM (inactive),> 100 µM (inactive),63.8 µM (inactive),86.3 µM (inactive),> 100 µM (inactive),> 100 µM (inactive),> 100 µM (inactive),> 100 µM (inactive),–,–
CCC(O)(c1ccc(OC)cc1)C(c1ccc(OCc2ccccc2)cc1)c1ccc(OCc2ccccc2)cc1 (configuration not stated),> 100 µM (inactive),> 100 µM (inactive),> 100 µM (inactive),> 100 µM (inactive),> 100 µM (inactive),> 100 µM (inactive),> 100 µM (inactive),> 100 µM (inactive),> 100 µM (inactive),> 100 µM (inactive),> 100 µM (inactive),99.5 µM (inactive),> 100 µM (inactive),> 100 µM (inactive),> 100 µM (inactive),> 100 µM (inactive)
O=C1c2ccccc2C(=O)c2sc(Nc3ccc(Cl)cc3)nc21,1.57 µM (inactive),1.82 µM (inactive),0.1 µM (active),4.68 µM (inactive),2.14 µM (inactive),0.388 µM (active),2.82 µM (inactive),1.51 µM (inactive),3.67 µM (inactive),1.8 µM (inactive),18.9 µM (inactive),1.85 µM (inactive),5.73 µM (inactive),2.16 µM (inactive),1.6 µM (inactive),1.65 µM (inactive)
C#CCOc1c(C(=O)OCC)c(=O)n(C)c2ccccc12,> 100 µM (inactive),> 100 µM (inactive),> 100 µM (inactive),< 0.01 µM (active),> 100 µM (inactive),> 100 µM (inactive),> 100 µM (inactive),> 100 µM (inactive),> 100 µM (inactive),> 100 µM (inactive),> 100 µM (inactive),> 100 µM (inactive),> 100 µM (inactive),72.6 µM (inactive),–,–
Brc1c2nc3ccccc3nc2n2ccc3ccccc3c12,> 100 µM (inactive),> 100 µM (inactive),> 100 µM (inactive),> 100 µM (inactive),> 100 µM (inactive),> 100 µM (inactive),> 100 µM (inactive),> 100 µM (inactive),> 100 µM (inactive),> 100 µM (inactive),2.23 µM (inactive),> 100 µM (inactive),> 100 µM (inactive),> 100 µM (inactive),> 100 µM (inactive),> 100 µM (inactive)
CC1=Nc2c(ccc3c2C(=O)c2ccccc2C3=O)NC(c2ccncc2)C1 (configuration not stated),6.75 µM (inactive),7.74 µM (inactive),0.798 µM (active),35.1 µM (inactive),> 10 µM (inactive),> 10 µM (inactive),> 10 µM (inactive),> 10 µM (inactive),> 10 µM (inactive),> 100 µM (inactive),6.49 µM (inactive),57.4 µM (inactive),> 10 µM (inactive),> 100 µM (inactive),> 10 µM (inactive),> 10 µM (inactive)
O=C(N/C(=C\c1cccc([N+](=O)[O-])c1)c1nc2c(O)nc(S)nc2[nH]1)c1ccccc1,> 100 µM (inactive),88.9 µM (inactive),69.3 µM (inactive),> 100 µM (inactive),> 100 µM (inactive),> 100 µM (inactive),> 100 µM (inactive),> 100 µM (inactive),> 100 µM (inactive),> 100 µM (inactive),> 100 µM (inactive),> 100 µM (inactive),> 100 µM (inactive),> 100 µM (inactive),> 100 µM (inactive),> 100 µM (inactive)
COC(=O)C(Cc1nc2ccc(Cl)cc2nc1O)C(=O)C(=O)Nc1ccccc1[N+](=O)[O-] (configuration not stated),> 100 µM (inactive),> 100 µM (inactive),> 100 µM (inactive),> 100 µM (inactive),> 100 µM (inactive),> 100 µM (inactive),> 100 µM (inactive),> 100 µM (inactive),> 100 µM (inactive),> 100 µM (inactive),> 100 µM (inactive),> 100 µM (inactive),> 100 µM (inactive),> 100 µM (inactive),> 100 µM (inactive),> 100 µM (inactive)
CC(C)(C)[Si](C)(C)O/N=C\c1cccc(O[Si](C)(C)C(C)(C)C)c1,17.9 µM (inactive),18.8 µM (inactive),18.3 µM (inactive),22.8 µM (inactive),16 µM (inactive),17.8 µM (inactive),17.7 µM (inactive),16.2 µM (inactive),17.9 µM (inactive),17.8 µM (inactive),21 µM (inactive),19.9 µM (inactive),20.7 µM (inactive),18.5 µM (inactive),19.2 µM (inactive),16.1 µM (inactive)
OCC(O)COc1c(Cl)cc(Cl)cc1Cl (configuration not stated),> 100 µM (inactive),> 100 µM (inactive),> 100 µM (inactive),> 100 µM (inactive),> 100 µM (inactive),> 100 µM (inactive),> 100 µM (inactive),> 100 µM (inactive),> 100 µM (inactive),> 100 µM (inactive),> 100 µM (inactive),> 100 µM (inactive),> 100 µM (inactive),> 100 µM (inactive),> 47.6 µM (inactive),> 100 µM (inactive)
CC1(C)COC(c2ccc(C(F)(F)F)cc2C(O)c2ccc3ccccc3c2)=N1 (configuration not stated),> 10 µM (inactive),> 10 µM (inactive),78.3 µM (inactive),> 10 µM (inactive),> 10 µM (inactive),> 10 µM (inactive),> 10 µM (inactive),> 10 µM (inactive),> 10 µM (inactive),> 10 µM (inactive),> 10 µM (inactive),> 10 µM (inactive),57.8 µM (inactive),64.3 µM (inactive),> 10 µM (inactive),> 10 µM (inactive)
Cc1ccccc1C(C#N)C(=O)C(=O)Nc1cccc(Cl)c1 (configuration not stated),> 100 µM (inactive),54.6 µM (inactive),91.4 µM (inactive),> 100 µM (inactive),> 100 µM (inactive),26.4 µM (inactive),61.5 µM (inactive),> 100 µM (inactive),> 100 µM (inactive),> 100 µM (inactive),> 100 µM (inactive),> 100 µM (inactive),> 100 µM (inactive),71.4 µM (inactive),37.8 µM (inactive),–
CN(c1n[n+]2c(-c3ccccc3)csc2s1)c1n[n+]2c(-c3ccccc3)csc2s1,> 100 µM (inactive),59.6 µM (inactive),47.6 µM (inactive),–,> 100 µM (inactive),> 100 µM (inactive),> 100 µM (inactive),> 100 µM (inactive),> 100 µM (inactive),89.5 µM (inactive),> 100 µM (inactive),> 100 µM (inactive),> 100 µM (inactive),> 100 µM (inactive),> 100 µM (inactive),> 100 µM (inactive)
